Values of other authors as cited in patent US20150325856A1, “ENVIRONMENTALLY FRIENDLY INKJET-PRINTABLE LITHIUM BATTERY CATHODE FORMULATIONS, METHODS AND DEVICES” (NEW JERSEY INSTITUTE OF TECHNOLOGY, priority 2014, published 2015).
Where two headings read alike, the source gives them in different places.

How the values were obtained:
[1] = system: rats, mice, guinea-pigs and rabbits
rats [2] = conditions: heads only
rats [3] = conditions: whole body exposure
rabbits [4] = system: rabbits
rabbits [5] = conditions: Ansell and Fowler, as cited in WHO 2001

In the case of `CN1CCCC1=O` [NMP, N-methyl-pyrrolidone], the “Tox. Cat. (oral LD50)” value ([1]; oral) is listed as “(Tox. Cat. III-IV)”, the “Oral LD50” value ([1]; rats, mice, guinea-pigs and rabbits, Ansell and Fowler, 1988, as cited in WHO 2001) is listed as 3900 to 7900 mg/kg and the “Tox. Cat. (dermal LD50)” value (rats and rabbits; dermal) is listed as “(Tox. Cat. III-IV)”. The “Dermal LD50” value (rats and rabbits; rats and rabbits, Bartsch et al., as cited in WHO 2001, Wallen 1992) was 4000-10,000 mg/kg, the “Inhalation LC50” value (rats [2]) was “(5100 mg/m^3)” and the “Inhalation LC50” value (rats [2]; BASF, 1988, as cited in WHO 2001) was >5.1 µg/mL. The “Inhalation LC50” value (rats [3]) was “(1700 mg/m^3)”, the “Inhalation LC50” value (rats [3]; E. I. DuPont de Nemours & Co. 1977, as cited in WHO 2001) was “=1.7 mg/L” and the “Primary Eye Irritation, recovery” value (rabbits [4]) was “recovered after 21 days post dosing”. The “Primary Eye Irritation” value (rabbits [4]; causing corneal opacity, iritis and conjunctivitis, Ansell and Fowler, as cited in WHO 2001) was “Moderate (causing” and the “Primary Skin Irritation” value (rabbits [5]) was “Practically non-”.
